These results are taken from patent publication US11345710B2, “Imidazo[1,2-b]pyrimido[4,5-d]pyridazin-5(6H)-ones and the use thereof” (IMPACT THERAPEUTICS (SHANGHAI), INC, priority 2017, dated 2022).

The target in test [1] is Wee1 kinase (h) (Homo sapiens, UniProt P30291). Nature of the test: Wee1 kinase (h) detection method, [γ-33P]-ATP filter assay. Format: biochemical. The note with it: for Inh. (%) of Wee1 kinase: 10 μM ATP, 40 minutes at room temperature. How it is done: Wee1 kinase (h) was incubated with 20 mM Tris/HCl pH 8.5, 0.2 mM EDTA, 500 μM […], 10 mM MgAcetate and 10 μM [γ-^33P]-ATP. Then the stock solution of all compounds under test with 50× concentration in 100% DMSO was added to make the final concentration of 1/0.1/0.01 μM, and then mixed the mixture well. The reaction was initiated by the addition of the Mg/ATP mix. After incubation for 40 minutes at room temperature, the reaction was stopped by the addition of phosphoric acid to a concentration of 0.5%. 10 μL of the reaction liquor was then spotted onto a P30 filtermat and washed four times in 0.425% phosphoric acid and once in methanol prior to drying and scintillation counting. Each compound sample was duplicated in duplicate. The negative control was lack of all the components of Wee1 enzyme, and the positive was addition of 30% phosphoric acid to terminate the reaction. The Wee1 inhibitor AZD1775 was detected at 10/0.01 μM at the same experiment condition.

The subject of test [2] is LoVo cells. Nature of the test: MTT based cell viability assay on LoVo cells. The note with it: for IC50: Homo sapiens, 72 h, read-out: IC50, growth inhibition on LoVo cells. As for the experimental part:
Determination of the Cell Growth Inhibiting Activity of 6-(2,6-dichlorophenyl)-2-((4-(4-methylpiperazin-1-yl)phenyl)amino)imidazo[1,2-b]pyrimido[4,5-d]pyridazin-5(6H)-one and Analogs Thereof on LoVo Cells Using a MTT Based Cell Viability Assay
The thawed LoVo cells were cultured and passaged to the third generation, and the growth state was good and the confluence was about 90%, which began to be used in the experiment. The LoVo cells were digested with trypsin, centrifuged at 800 rpm for 5 min, the supernatant was discarded, resuspended with fresh culture medium, and counted. 6000 Cells are seeded to each well of a 96-well cell culture plate. The cells were incubated at 37° C. in a 5% CO2 cell culture incubator overnight. The tested sample (including the tested compound and the reference compound AZD1775) was diluted continuously to 8 concentrations (the last concentration was negative control of DMSO) with a 1:3 and 1:10 dilution in DMSO respectively: 10 μM, 3.3 μM, 1 μM, 0.33 μM, 0.1 μM, 0.033 μM, 0.01 μM, 0 μM (the final concentration of DMSO was 1%). 5 μL of each concentration was added to 120 μL of culture medium (25 times diluted), and the mixture was shaken well. The overnight cells were taken and the culture medium was removed, 195 μL of fresh culture medium was added to each well, and 5 μL of diluted culture medium containing the corresponding concentration of the tested sample was added respectively, and the culture plate was then placed in the 5% CO2 cell culture incubator at 37° C. for 3 d. After removing the original solution and adding 100 μL of fresh serum-free DMEM culture medium containing MTT (0.5 mg/mL) per well, the culture was continued. The original solution was removed after 4 hrs and 100 μl DMSO was added to each well. The 96-well cell culture plates were shaken away from light for 10 min and readed in a multifunctional reader at 552/630/690 nm to give absorption values (OD values). The data were analyzed using a graphic software (Graph Pad Prism 5.0) and the inhibitory activity of the compound on cell proliferation was plotted in terms of cell survival and compound concentration. The IC50 values were fitted by the S-shaped dose-response curve equation as follows: Y=100/(1+10^(Log C−Log IC50)), where C was the concentration of testing compounds.

Test [3] deals with NCI-H1299 cells. Kind of test: MTT based cell viability assay on NCI-H1299 cells. The settings on record: for IC50: Homo sapiens, read-out: IC50, growth inhibition on NCI-H1299 cells. As for the experimental part: Determination of the Cell Growth Inhibiting Activity of 6-(2,6-dichlorophenyl)-2-((4-(4-methylpiperazin-1-yl)phenyl)amino)imidazo[1,2-b]pyrimido[4,5-d]pyridazin-5(6H)-one and Analogs on NCI-H1299 Cells Using a MTT Based Cell Viability Assay
The thawed NCI-H1299 cells were cultured and passaged to the third generation, and the growth state was good and the confluence was about 90%, which began to be used in the experiment. The NCI-H1299 cells were digested with trypsin, centrifuged at 800 rpm for 5 min, the supernatant was discarded, resuspended with fresh culture medium, and counted. 1000 Cells are seeded to each well of a 96-well plate. The cells are incubated at 37° C. in a 5% CO2 cell culture incubator overnight. The tested sample (including the tested compound and the reference compound AZD1775) was diluted continuously to 8 concentrations (the last concentration was negative control of DMSO) with a 1:3 and 1:10 dilution in DMSO respectively: 10 μM, 3.3 μM, 1 μM, 0.33 μM, 0.1 μM, 0.033 μM, 0.01 μM, 0 μM (the final concentration of DMSO was 1%). 5 μL of each concentration was added to 120 μL of culture medium (25 times diluted), and the mixture was shaken well. The overnight cells were taken and the culture medium was removed, 195 μL of fresh culture medium was added to each well, and 5 μL of diluted culture medium containing the corresponding concentration of the tested sample was added respectively, and the culture plate was then placed in the 5% CO2 cell culture incubator at 37° C. for 3 d. After removing the original solution and adding 100 μL of fresh serum-free DMEM culture medium containing MTT (0.5 mg/mL) per well, the culture was continued. The original solution was removed after 4 hrs and 100 μl DMSO was added to each well. The 96-well cell culture plates were shaken away from light for 10 min and readed in a multifunctional reader at 552/630/690 nm to give absorption values (OD values). The data were analyzed using a graphic software (Graph Pad Prism 5.0) and the inhibitory activity of the compound on cell proliferation was plotted in terms of cell survival and compound concentration. The IC50 values were fitted by the S-shaped dose-response curve equation as follows: Y=100/(1+10^(Log C−Log IC50)), where C was the concentration of testing compounds.

Setting [4] is: 72 h, NCI-H1299 cells, 3 d, MTT.

Where two headings read alike, the source gives them in different places.

Chain of Wee1 kinase (h) (P30291 whole entry): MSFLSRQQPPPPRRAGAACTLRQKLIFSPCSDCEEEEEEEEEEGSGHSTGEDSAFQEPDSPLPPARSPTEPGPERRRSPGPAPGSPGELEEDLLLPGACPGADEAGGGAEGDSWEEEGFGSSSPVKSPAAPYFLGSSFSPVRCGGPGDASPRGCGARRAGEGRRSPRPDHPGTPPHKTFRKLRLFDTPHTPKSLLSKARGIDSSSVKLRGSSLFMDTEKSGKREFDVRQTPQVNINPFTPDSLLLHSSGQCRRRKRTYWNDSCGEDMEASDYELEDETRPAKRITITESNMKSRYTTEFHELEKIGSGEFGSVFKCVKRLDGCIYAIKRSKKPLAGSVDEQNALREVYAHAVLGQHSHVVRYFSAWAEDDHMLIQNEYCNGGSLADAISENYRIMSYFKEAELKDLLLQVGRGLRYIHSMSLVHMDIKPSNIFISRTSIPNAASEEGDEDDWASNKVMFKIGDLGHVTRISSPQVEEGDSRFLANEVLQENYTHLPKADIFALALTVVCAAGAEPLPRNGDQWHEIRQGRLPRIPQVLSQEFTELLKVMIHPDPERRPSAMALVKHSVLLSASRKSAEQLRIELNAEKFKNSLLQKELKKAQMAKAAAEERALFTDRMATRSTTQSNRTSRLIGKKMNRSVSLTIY

Consider `CN1CCN(c2ccc(Nc3ncc4c(=O)n(-c5c(Cl)cccc5Cl)n5ccnc5c4n3)cc2)CC1` [Example 1, 6-(2,6-dichlorophenyl)-2-((4-(4-methylpiperazin-1-yl)phenyl)amino)imidazo[1,2-b]pyrimido[4,5-d]pyridazin-5(6H)-one], for which the “inhibitory effect on the activity of Wee1 kinase (summary in words)” value in test [1] is on record as “good inhibitory effect”. Also, the “Inh. (%) of Wee1 kinase” value in test [1] (C 0.01 μm) was determined as 11%; in test [1] (C 0.1 μm) it was 75%; in test [1] (C 1 μm), 94%. Further, the IC50 in test [2] (LoVo) was found to be 524 nM; in test [3] (NCI-H1299, 72 h), 916 nM. The “inhibitory effect on the growth of LoVo cells (summary in words)” value in test [2] (MTT method) is given as “inhibitory effect”. In addition, in test [3] (MTT method), the “inhibitory effect on the growth of NCI-H1299 cell (summary in words)” value was “inhibitory effect”.
As to `Cc1cc(Nc2ncc3c(=O)n(-c4c(F)cccc4F)n4ccnc4c3n2)ccc1N1CCN(C)CC1` [Example 2, 6-(2,6-difluorophenyl)-2-((3-methyl-4-(4-methylpiperazin-1-yl)phenyl)amino)imidazo[1,2-b]pyrimido[4,5-d]pyridazin-5(6H)-one], the “Inh. (%) of Wee1 kinase” value in test [1] (C 1 μm) was 93%. Moreover, the IC50 in test [2] (LoVo cells, 3 d, MTT) amounted to 406 nM; in test [3] (setting [4]) it was 652 nM.
`Cc1cc(Nc2ncc3c(=O)n(-c4c(Cl)cccc4Cl)n4ccnc4c3n2)ccc1N1CCN(C)CC1` [Example 3, 6-(2,6-dichlorophenyl)-2-((3-methyl-4-(4-methylpiperazin-1-yl)phenyl)amino)imidazo[1,2-b]pyrimido[4,5-d]pyridazin-5(6H)-one]: the results for the “Inh. (%) of Wee1 kinase” value in test [1] (C 0.01 μm), in test [1] (C 0.1 μm) and in test [1] (C 1 μm) were 26%, 76% and 96%, respectively. The IC50 amounted to 236 nM in test [2] (LoVo) and 178 nM in test [3] (NCI-H1299, 72 h).
On to `Cc1cc(Nc2ncc3c(=O)n(-c4c(Cl)cccc4Cl)n4ccnc4c3n2)cc(C)c1N1CCN(C)CC1` [Example 4, 6-(2,6-dichlorophenyl)-2-((3,5-dimethyl-4-(4-methylpiperazin-1-yl)phenyl)amino)imidazo[1,2-b]pyrimido[4,5-d]pyridazin-5(6H)-one], for which the “Inh. (%) of Wee1 kinase” value in test [1] (C 0.01 μm) is 16%; in test [1] (C 0.1 μm), 73%; in test [1] (C 1 μm), 96%. Further, the IC50 in test [2] (LoVo) came to 339 nM; in test [3] (NCI-H1299, 72 h), 383 nM.
As for `CN1CCN(c2ccc(Nc3ncc4c(=O)n(-c5c(F)cccc5Cl)n5ccnc5c4n3)cc2)CC1` [Example 7, 6-(2-chloro-6-fluorophenyl)-2-((4-(4-methylpiperazin-1-yl)phenyl)amino)imidazo[1,2-b]pyrimido[4,5-d]pyridazin-5(6H)-one], in test [1] (C 1 μm), the “Inh. (%) of Wee1 kinase” value worked out at 92%. The half-maximal inhibitory concentration (IC50) was found to be 831 nM in test [2] (LoVo cells, 3 d, MTT) and 781 nM in test [3] (setting [4]).
For the compound `Cc1cc(Nc2ncc3c(=O)n(-c4c(F)cccc4Cl)n4ccnc4c3n2)ccc1N1CCN(C)CC1` [Example 9, 6-(2-chloro-6-fluorophenyl)-2-((3-methyl-4-(4-methylpiperazin-1-yl)phenyl)amino)imidazo[1,2-b]pyrimido[4,5-d]pyridazin-5(6H)-one], the “Inh. (%) of Wee1 kinase” value in test [1] (C 0.01 μm) worked out at 14%; in test [1] (C 1 μm), 97%. The 50% inhibitory concentration (IC50) in test [2] (LoVo cells, 3 d, MTT) stood at 213 nM; in test [3] (setting [4]), 284 nM.
Take `Cc1cc(Nc2ncc3c(=O)n(-c4c(F)cccc4Cl)n4ccnc4c3n2)cc(C)c1N1CCN(C)CC1` [Example 11, 6-(2-chloro-6-fluorophenyl)-2-((3,5-dimethyl-4-(4-methylpiperazin-1-yl)phenyl)amino)imidazo[1,2-b]pyrimido[4,5-d]pyridazin-5(6H)-one]: the “Inh. (%) of Wee1 kinase” value in test [1] (C 1 μm) was determined as 93%. Besides, the IC50 is 266 nM in test [2] (LoVo cells, 3 d, MTT) and 555 nM in test [3] (setting [4]).
On to `CN1Cc2cc(Nc3ncc4c(=O)n(-c5c(F)cccc5Cl)n5ccnc5c4n3)ccc2C(C)(C)C1` [Example 12, 6-(2-chloro-6-fluorophenyl)-2-((2,4,4-trimethyl-1,2,3,4-tetrahydroisoquinolin-7-yl)amino)imidazo[1,2-b]pyrimido[4,5-d]pyridazin-5(6H)-one], for which, in test [1] (C 1 μm), the “Inh. (%) of Wee1 kinase” value stood at 96%. The IC50 amounted to 818 nM in test [2] (LoVo cells, 3 d, MTT) and 445 nM in test [3] (setting [4]).
As to `Cc1cc(Nc2ncc3c(=O)n(-c4c(F)cccc4F)n4ccnc4c3n2)cc(C)c1N1CCN(C)CC1` [Example 13, 6-(2,6-difluorophenyl)-2-((3,5-dimethyl-4-(4-methylpiperazin-1-yl)phenyl)amino)imidazo[1,2-b]pyrimido[4,5-d]pyridazin-5(6H)-one], the “Inh. (%) of Wee1 kinase” value in test [1] (C 1 μm) is recorded as 85%. The half-inhibitory concentration (IC50) was 488 nM in test [2] (LoVo cells, 3 d, MTT) and 738 nM in test [3] (setting [4]).
Consider `Cc1cc(Nc2ncc3c(=O)n(-c4c(C)cccc4F)n4ccnc4c3n2)ccc1N1CCN(C)CC1` [Example 14, 6-(2-fluoro-6-methylphenyl)-2-((3-methyl-4-(4-methylpiperazin-1-yl)phenyl)amino)imidazo[1,2-b]pyrimido[4,5-d]pyridazin-5(6H)-one], for which, in test [1] (C 1 μm), the “Inh. (%) of Wee1 kinase” value worked out at 93%. Moreover, the IC50 in test [2] (LoVo cells, 3 d, MTT) amounted to 871 nM; in test [3] (setting [4]) it was 587 nM.
Regarding `Cc1cc(Nc2ncc3c(=O)n(-c4c(C)cccc4F)n4ccnc4c3n2)cc(C)c1N1CCN(C)CC1` [Example 15, 6-(2-fluoro-6-methylphenyl)-2-((3,5-dimethyl-4-(4-methylpiperazin-1-yl)phenyl)amino) imidazo[1,2-b]pyrimido[4,5-d]pyridazin-5(6H)-one], the “Inh. (%) of Wee1 kinase” value in test [1] (C 1 μm) was found to be 87%. Further, the IC50 is 832 nM in test [2] (LoVo cells, 3 d, MTT) and 904 nM in test [3] (setting [4]).
With `Cc1cc(Nc2ncc3c(=O)n(-c4c(C)cccc4Cl)n4ccnc4c3n2)ccc1N1CCN(C)CC1` [Example 16, 6-(2-chloro-6-methylphenyl)-2-((3-methyl-4-(4-methylpiperazin-1-yl)phenyl)amino)imidazo[1,2-b]pyrimido[4,5-d]pyridazin-5(6H)-one], the “Inh. (%) of Wee1 kinase” value in test [1] (C 0.01 μm) is given as 22%; in test [1] (C 0.1 μm), 73%; in test [1] (C 1 μm) it was 93%. Moreover, the half-inhibitory concentration (IC50) in test [2] (LoVo cells, 3 d, MTT) was 424 nM; in test [3] (setting [4]), 365 nM.
